In patent publication US9073855B2, “BCL-2 selective apoptosis-inducing agents for the treatment of cancer and immune diseases” (AbbVie Inc., priority 2008, dated 2015):

Key:
[1] = biological target: GST-Bcl-2 (Homo sapiens, UniProt P10415); test: TR-FRET binding assay, GST-Bcl-2 with F-Bak peptide probe; settings: for Ki: TR-FRET Binding Affinity
Method in brief: (§1)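 Displacement of a fluorescein-labelled Bak peptide from the GST-tagged protein was followed by time-resolved FRET with a terbium anti-GST donor after 3 h incubation at room temperature. Inhibition constants were calculated with Wang's equation.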

[2] = biological target: GST-Bcl-XL (Homo sapiens, UniProt Q07817); test: TR-FRET binding assay, GST-Bcl-XL with F-Bak peptide probe; settings: TR-FRET Binding Affinity
Method in brief: as §1

[3] = GST-Bcl-XL, F-Bak peptide probe
[4] = ratio of TR-FRET Ki values, Bcl-XL over Bcl-2
[5] = TR-FRET, Bcl-XL Ki divided by Bcl-2 Ki

GST-Bcl-2, sequence (P10415 whole entry): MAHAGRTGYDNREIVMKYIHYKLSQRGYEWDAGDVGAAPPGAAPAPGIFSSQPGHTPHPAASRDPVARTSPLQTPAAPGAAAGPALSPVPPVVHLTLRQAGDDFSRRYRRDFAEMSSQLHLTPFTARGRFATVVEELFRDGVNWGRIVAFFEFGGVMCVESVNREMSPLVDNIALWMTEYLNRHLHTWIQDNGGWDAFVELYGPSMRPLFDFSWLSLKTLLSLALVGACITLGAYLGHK
GST-Bcl-XL, sequence (Q07817 whole entry): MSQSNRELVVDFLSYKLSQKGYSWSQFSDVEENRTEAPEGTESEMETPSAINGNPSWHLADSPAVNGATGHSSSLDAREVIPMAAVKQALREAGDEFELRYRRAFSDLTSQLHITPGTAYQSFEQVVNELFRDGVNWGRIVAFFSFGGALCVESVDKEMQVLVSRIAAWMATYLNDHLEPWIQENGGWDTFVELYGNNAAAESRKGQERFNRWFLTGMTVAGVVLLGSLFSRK

Compound	Ki [1] [nM]	Ki [2] [nM]	Ki ([1]; GST-Bcl-2, F-Bak peptide probe) [nM]	Ki [2, 3] [nM]	Binding selectivity ratio (Bcl-XL Ki/Bcl-2 Ki) [1, 4]	Binding selectivity ratio (Bcl-XL Ki/Bcl-2 Ki) [1, 5]
CC1(C)CCC(CN2CCN(c3ccc(C(=O)NS(=O)(=O)c4ccc(NCC5(F)CCOCC5)c([N+](=O)[O-])c4)c(Oc4cccc5[nH]cnc45)c3)CC2)=C(c2ccc(Cl)cc2)C1 [Example 441, 2-(1H-benzimidazol-4-yloxy)-4-(4-{[2-(4-chlorophenyl)-4,4-dimethylcyclohex-1-en-1-yl]methyl}piperazin-1-yl)-N-[(4-{[(4-fluorotetrahydro-2H-pyran-4-yl)methyl]amino}-3-nitrophenyl)sulfonyl]benzamide]	< 0.01	24.2	–	–	–	–
CC1(C)CN(c2ccc(S(=O)(=O)NC(=O)c3ccc(N4CCN(Cc5ccccc5-c5ccc(Cl)cc5)CC4)cc3Oc3ccccc3)cc2)C1=O [Example 30, 4-{4-[(4′-chloro-1,1′-biphenyl-2-yl)methyl]piperazin-1-yl}-N-{[4-(3,3-dimethyl-2-oxoazetidin-1-yl)phenyl]sulfonyl}-2-phenoxybenzamide]	–	–	103	> 660	–	–
CC1(C)CCC(CN2CCN(c3ccc(C(=O)NS(=O)(=O)c4cnc(OCC5(F)CCN(CC#N)CC5)c(Cl)c4)c(Oc4cccc5[nH]ncc45)c3)CC2)=C(c2ccc(Cl)cc2)C1 [Example 419, N-[(5-chloro-6-{[1-(cyanomethyl)-4-fluoropiperidin-4-yl]methoxy}pyridin-3-yl)sulfonyl]-4-(4-{[2-(4-chlorophenyl)-4,4-dimethylcyclohex-1-en-1-yl]methyl}piperazin-1-yl)-2-(1H-indazol-4-yloxy)benzamide]	–	–	0.197	211	1070.8	–
CC1(C)CCC(CN2CCN(c3ccc(C(=O)NS(=O)(=O)c4cnc(OCC5CCC(C)(O)CC5)c(Cl)c4)c(Oc4cccc5[nH]ncc45)c3)CC2)=C(c2ccc(Cl)cc2)C1 (stereo not drawn) [Example 494, N-({5-chloro-6-[(trans-4-hydroxy-4-methylcyclohexyl)methoxy]pyridin-3-yl}sulfonyl)-4-(4-{[2-(4-chlorophenyl)-4,4-dimethylcyclohex-1-en-1-yl]methyl}piperazin-1-yl)-2-(1H-indazol-4-yloxy)benzamide]	< 0.01	15.6	–	–	–	>1556.6
CC1(C)CCC(CN2CCN(c3ccc(C(=O)NS(=O)(=O)c4cnc(OCC5CCC(F)(F)CC5)c(Cl)c4)c(Oc4cccc5[nH]ncc45)c3)CC2)=C(c2ccc(Cl)cc2)C1 [Example 482, N-({5-chloro-6-[(4,4-difluorocyclohexyl)methoxy]pyridin-3-yl}sulfonyl)-4-(4-{[2-(4-chlorophenyl)-4,4-dimethylcyclohex-1-en-1-yl]methyl}piperazin-1-yl)-2-(1H-indazol-4-yloxy)benzamide]	0.064	350	–	–	–	5442.9
CC[C@]1(O)CC[C@@H](COc2ncc(S(=O)(=O)NC(=O)c3ccc(N4CCN(CC5=C(c6ccc(Cl)cc6)CC(C)(C)CC5)CC4)cc3Oc3cccc4[nH]ncc34)cc2Cl)CC1 [Example 509, N-({5-chloro-6-[(cis-4-ethyl-4-hydroxycyclohexyl)methoxy]pyridin-3-yl}sulfonyl)-4-(4-{[2-(4-chlorophenyl)-4,4-dimethylcyclohex-1-en-1-yl]methyl}piperazin-1-yl)-2-(1H-indazol-4-yloxy)benzamide]	6.3	229	–	–	–	36.4
CC1(C)CCC(CN2CCN(c3ccc(C(=O)NS(=O)(=O)c4cnc(OC[C@@H]5CCN(C(CF)CF)C5)c(Cl)c4)c(Oc4cccc5[nH]ncc45)c3)CC2)=C(c2ccc(Cl)cc2)C1 [Example 444, N-{[5-chloro-6-({(3R)-1-[2-fluoro-1-(fluoromethyl)ethyl]pyrrolidin-3-yl}methoxy)pyridin-3-yl]sulfonyl}-4-(4-{[2-(4-chlorophenyl)-4,4-dimethylcyclohex-1-en-1-yl]methyl}piperazin-1-yl)-2-(1H-indazol-4-yloxy)benzamide]	0.112	81.5	–	–	–	727.6
CC1(C)CCC(CN2CCN(c3ccc(C(=O)NS(=O)(=O)c4ccc(OCC5(F)CCOCC5)c(Cl)c4)c(Oc4cccc5[nH]cnc45)c3)CC2)=C(c2ccc(Cl)cc2)C1 [Example 499, 2-(1H-benzimidazol-4-yloxy)-N-({3-chloro-4-[(4-fluorotetrahydro-2H-pyran-4-yl)methoxy]phenyl}sulfonyl)-4-(4-{[2-(4-chlorophenyl)-4,4-dimethylcyclohex-1-en-1-yl]methyl}piperazin-1-yl)benzamide]	< 0.01	104	–	–	–	>10415.0
COc1ccc(S(=O)(=O)NC(=O)c2ccc(N3CCN(Cc4ccccc4-c4ccc(Cl)cc4)CC3)cc2Oc2ccccc2)cc1 [Example 60, 4-{4-[(4′-chloro-1,1′-biphenyl-2-yl)methyl]piperazin-1-yl}-N-[(4-methoxyphenyl)sulfonyl]-2-phenoxybenzamide]	–	–	18.9	> 660	–	–
CN(C)CC(=O)N1CC[C@@H](Nc2ccc(S(=O)(=O)NC(=O)c3ccc(N4CCN(CC5=C(c6ccc(Cl)cc6)CC(C)(C)CC5)CC4)cc3Oc3cccc4[nH]cnc34)cc2[N+](=O)[O-])C1 [Example 430, 2-(1H-benzimidazol-4-yloxy)-4-(4-{[2-(4-chlorophenyl)-4,4-dimethylcyclohex-1-en-1-yl]methyl}piperazin-1-yl)-N-[(4-{[(3R)-1-(N,N-dimethylglycyl)pyrrolidin-3-yl]amino}-3-nitrophenyl)sulfonyl]benzamide]	–	–	< 0.01	0.998	99.8	–
CC1(C)CCC(CN2CCN(c3cc(Oc4cccc5[nH]ncc45)c(C(=O)NS(=O)(=O)c4ccc(NCC5(F)CCOCC5)c([N+](=O)[O-])c4)cc3Cl)CC2)=C(c2ccc(Cl)cc2)C1 [Example 511, 5-chloro-4-(4-{[2-(4-chlorophenyl)-4,4-dimethylcyclohex-1-en-1-yl]methyl}piperazin-1-yl)-N-[(4-{[(4-fluorotetrahydro-2H-pyran-4-yl)methyl]amino}-3-nitrophenyl)sulfonyl]-2-(1H-indazol-4-yloxy)benzamide]	< 0.01	21.6	–	–	–	>2159.2
O=C(NS(=O)(=O)c1ccc(NCCn2ccnn2)c([N+](=O)[O-])c1)c1ccc(N2CCN(Cc3ccccc3-c3ccc(Cl)cc3)CC2)cc1Oc1ccccc1 [Example 164, 4-{4-[(4′-chloro-1,1′-biphenyl-2-yl)methyl]piperazin-1-yl}-N-[(3-nitro-4-{[2-(1H-1,2,3-triazol-1-yl)ethyl]amino}phenyl)sulfonyl]-2-phenoxybenzamide]	–	–	0.963	138	–	–
CN(C)CCCN(C)c1ccc(S(=O)(=O)NC(=O)c2ccc(N3CCN(Cc4ccccc4-c4ccc(Cl)cc4)CC3)cc2Oc2ccccc2)cc1[N+](=O)[O-] [Example 87, 4-{4-[(4′-chloro-1,1′-biphenyl-2-yl)methyl]piperazin-1-yl}-N-({4-[[3-(dimethylamino)propyl](methyl)amino]-3-nitrophenyl}sulfonyl)-2-phenoxybenzamide]	–	–	0.762	407	–	–
